# From patent publication US12310967B2, “Compositions and methods of treatment for neurological disorders comprising motor neuron diseases” (Gliapharm SA, priority 2017, dated 2025)
# pEC50: −log10 of the molar value. Read-outs that look alike come from different tables or passages of the source.
# Test system: primary astrocytes
# Assay: Extracellular lactate quantification
# Type: cell-based, mouse
# Conditions: Appendix II; for Score Lact.: CDC54K library; for pEC50: lactate secretion, read-out: EC50
# Method: Secretion of L-lactate was determined in the extracellular medium of 96-well plated astrocytes after 90 min stimulation (at 37° C., in 5% CO2/95% air conditions) with the drug of interest. The stimulation medium was composed of D5030 medium (completed with D-glucose 5 mM and 44 mM sodium bicarbonate) for 90 min in concentrations ranging from 0 to 100 μM.
# Briefly, 200 μl of a Glycine (Sigma)-Semicarbazide (Acros) 0.2M pH 10 buffer containing 3 mM NAD (Roche) and LDH 14 U/ml (Roche) was added to each well of a 96-well plate containing 30 μl aliquots complemented with 20 μl fresh complete D5030 medium. Samples were incubated at 37° C. for 1 h. After samples cooled down at room temperature, the fluorescence intensity (340 nm excitation/450 nm emission) that represents the amount of NADH produced was measured, and lactate concentration values were determined from a standard curve of L-lactate.
# Statistical analysis consisted in ANOVA followed by Fisher LSD post-hoc test for pair-wise comparisons.
# Levels of lactate secreted by astrocytes were measured in the extracellular medium at 90 min after stimulation with hits (molecules) from the CDC54K library.
Structure (SMILES),Score Lact.,pEC50,"pEC50 (Mus musculus, Astrocyte)"
CCc1cc2c(NC3CCCC3)ncnc2s1 [887-0183],0.66,–,–
Cc1noc2ncnc(NC(C)CCc3ccccc3)c12 (stereo not shown) [E944-0182],0.55,–,–
COc1ccc(S(=O)(=O)Nc2ccc(N3CCCCS3(=O)=O)cc2)cc1F [F2794-0128],0.62,5.01,–
Cc1cccc(NS(=O)(=O)c2ccc(F)c(Cl)c2)c1 [F3394-1364],0.33,5.23,–
CC(C)(C)c1cccc(CNc2ncnc3[nH]ncc23)c1 [F5285-0069],0.36,–,5.20
CCc1cccc(NS(=O)(=O)c2ccc3c(c2)CCCN3C(C)=O)c1 [G855-0143],0.56,–,–
CC(=O)N1CCCc2cc(S(=O)(=O)Nc3ccc(OC(F)(F)F)cc3)ccc21 [G855-0183],0.54,–,–
CCNc1cc(C)nc(Nc2ccc(NC(=O)Cc3ccccc3)cc2)n1 [G869-0064],0.54,–,–
CCNc1cc(C)nc(Nc2ccc(NC(=O)C3=CC=CC3)cc2)n1 [G869-0071],0.63,–,5.31
COc1ccc(CCNc2ncnc3c2cnn3C)cc1 [K405-2595],0.70,–,–
CCOc1ccc(C2=CCc3c2ncn(Cc2ccncc2)c3=O)cc1OCC [L115-0403],0.81,–,5.48
CC(=O)N1CC(C)(C)c2cc(S(=O)(=O)NCc3ccc(C)cc3)ccc21 [L302-0069],0.55,–,–
CC(=O)N1CC(C)(C)c2cc(S(=O)(=O)Nc3ccc(I)cc3C)ccc21 [L302-0181],0.52,–,5.30
Cc1cccc(NC(=O)NC2CCN(c3nc4ccccc4n(C)c3=O)CC2)c1 [L932-0267],0.53,–,5.33
CN(C)c1ccc2ncnc(N3CCN(C(=O)c4ccc(Cl)cc4)CC3)c2c1 [M381-0730],0.57,–,–
CCc1ccc(NC(=O)Cc2cn(C)c3ncccc23)cc1 [M508-0370],0.60,–,–
CCCCN1C(=O)C(C)(C(=O)Nc2ccc(OCC)cc2)Oc2cccnc21 (stereo not shown) [P621-1364],0.43,–,–
Br.CCOc1ccc(C2(O)C(C)C3=C(CCN3)N2c2ccc(OC)cc2)cc1 (stereo not shown) [T0500-6629],0.61,–,5.58
Cc1nc2ccccc2n1CCOc1ccc(Br)cc1 [T0505-4087],0.64,–,–
C1=C(c2ccccc2)c2c(ncnc2NCCN2CCOCC2)C1.O=C(O)C(=O)O.O=C(O)C(=O)O [T0513-0213],0.30,–,5.40
CC1(C)Cc2cccc(OCC(O)CN3CCc4ccccc4C3)c2O1 (stereo not shown) [T0515-1783],0.59,–,–
N#Cc1cc(C(=O)c2cc(I)ccc2O)cn(-c2ccc(I)c(Cl)c2)c1=O [T0516-6894],0.38,–,5.09

Structure (SMILES),Score Lact.,pEC50,"pEC50 (Mus musculus, Astrocyte)"
Cc1[nH]c2nc(CNc3nc4ccccc4c(=O)n3C)[nH]c(=O)c2c1C [T0517-2783],0.46,–,5.42
COc1ccc(NS(=O)(=O)c2cccc(NC(=O)c3ccc[nH]3)c2)cc1 [T0517-4117],0.91,–,5.27
CCN(CC)C(=O)c1nc(CNC(=O)c2ccc3ccccc3n2)oc1C [T993-1787],0.36,–,–
O=c1[nH]nc(SCCOc2ccc(Br)cc2)n1C1CC1 [T533260],0.53,–,5.16
O=S(=O)(Nc1ccc(S(=O)(=O)C(F)F)cc1)c1ccc(Cl)cc1 [T5311200],0.56,–,–
CCOc1ccc(CN(C)CC(=O)Nc2cccc(C)c2)cc1OC [T5318833],0.42,–,–
COc1ccc(NS(=O)(=O)c2ccc(NC(=O)C3CCCO3)cc2)cc1 (stereo not shown) [T5329723],0.53,–,–
CN1c2ccccc2C(=O)NC1c1ccc(Cl)c(Cl)c1 (stereo not shown) [T5389517],0.33,–,–
CN(C)S(=O)(=O)c1cccc(C(=O)Nc2ccc(Oc3ccccc3)cc2)c1 [T5393500],0.59,–,–
Cc1ccc(OCCn2c(C)nc3ccccc32)cc1 [T5444083],0.51,–,–
CCN1C(=O)c2cccc3c(S(=O)(=O)Nc4ccc(OC)cc4OC)ccc1c23 [T5477696],0.44,–,–
Cc1c(O)ccc2c(CN(C)CC3COc4ccccc4O3)cc(=O)oc12 (stereo not shown) [T5494352],0.44,–,–
CCn1c(=O)c(C)nc2cc(C(=O)N(Cc3ccc(C)cc3)C3CC3)ccc21 [T5586091],0.45,–,5.27
CCCC(=O)NC1=NC(c2ccc3c(c2)CCO3)=CC1 [T5691896],0.38,–,5.28
Cc1ccc(-c2c[nH]c(NC(=O)c3ccncc3)n2)cc1[N+](=O)[O-] [T5694329],0.47,–,5.80
CC(=O)c1c(C)[nH]c(C(=O)N(C)Cc2ccc(C)cc2C)c1C [T5705522],0.85,–,–
CC(=O)N1CCc2cc(S(=O)(=O)NCC(C)c3ccccc3)ccc21 (stereo not shown) [T5707230],0.67,5.31,–
COc1ccc(C(C)NC(=O)c2cc(=O)c3ccccc3o2)cc1I (stereo not shown) [T5710343],0.67,–,5.20
CCc1ccccc1NC(=O)CN(C)c1nccc2c1oc1ccccc12 [T5712071],0.8,–,5.94
CC1=C(C)c2c(N)nc(CCc3nc4ccccc4[nH]3)nc2C1 [T5719257],0.74,–,5.55
Cc1ccc(S(=O)(=O)Nc2ccc(F)c(F)c2F)cc1[N+](=O)[O-] [T5729557],0.88,–,–
CCc1ccc(S(=O)(=O)Nc2c(C)nn(C)c2C)cc1 [T5753165],0.54,–,–

Structure (SMILES),Score Lact.,pEC50,"pEC50 (Mus musculus, Astrocyte)"
COc1ccccc1NC(=O)CO/N=C(/N)c1cccc(C(C)(F)F)c1 [T5770640],0.55,–,5.31
COc1cc(C)c(NC(=O)Cc2ccc(C)c(C)c2)cc1OC [T5783794],0.44,–,5.21
C1=Cc2ncnc(NCc3ccc4c(c3)OCO4)c2C1 [T5787526],0.71,–,5.41
CC(=O)Nc1cccc(NC(=O)CCc2nc(C)c(C)n2C2CCCC2)c1 [T5788339],0.75,–,5.41
CCCCn1c(CN(C)Cc2ccccc2)nc2c1c(=O)n(C)c(=O)n2C [T5788545],0.45,–,–
C1=Cc2ncnc(NCc3ccccc3CN3CCOCC3)c2C1 [T5790476],0.79,–,5.40
CC(=O)c1c(C)[nH]c(C(=O)C(C)N(C)Cc2ccc3c(c2)OCO3)c1C (stereo not shown) [T5798761],0.73,–,–
COc1cccc(C(CNc2nc(C(C)(C)C)nc3ccccc23)N(C)C)c1 (stereo not shown) [T5800607],063,–,5.23
Cn1nc(C(=O)Nc2ccc(Oc3ccccc3Cl)cc2)ccc1=O [T5813085],1.01,–,–
O=C(O)C(=O)O.c1ccc(Cc2ccc(OCCn3ccnc3)cc2)cc1 [T5821723],0.73,–,–
COc1ccc(-c2csc(N3C(=O)CC4CS(=O)(=O)CC43)n2)cc1 (stereo not shown) [T5832764],0.60,5.40,–
Cc1cc(C)cc(NC(=O)CN2CCCC2c2ccc3c(c2)OCCCO3)c1 (stereo not shown) [T5993799],1.14,–,5.06
Cc1cccc(NC(=O)c2ccc(S(=O)(=O)Nc3ccccc3)cc2)n1 [T6125251],0.51,–,–
O=S(=O)(Nc1ccc(Cl)cc1)c1ccc(F)c(Cl)c1 [T6947848],0.98,–,–
COc1ccc(CC(=O)Nc2ccc(C)c(C)c2)cc1OC [Y030-2832],0.34,–,–
O=C(Nc1ccc(S(=O)(=O)NCC2CCCO2)cc1)c1ccccc1 (stereo not shown) [Y031-0361],0.43,–,–
C1CCCC(NC2=NCCCNC23CCCCC3)CC1 [Z076-0028],0.56,–,–
Cc1nnsc1C(=O)N1CCN(C(C)C)CC1 [Z606-5341],0.36,–,–
Cc1nc2ncnn2c(NC2CCCCCC2)c1C [Z606-8287],0.57,–,–
Cc1nc2ncnn2c(NCc2ccco2)c1C [Z606-8298],0.38,–,–
CCc1c(C)nc2ncnn2c1NC1CCCCCC1 [Z606-8351],0.42,–,–
CCc1c(C)nc2ncnn2c1NC1CCCCC1 [Z606-8352],0.83,–,–
